Measurements from US7238781B2, “Plant defensin polynucleotides and methods of use thereof” (E. I. DuPont de Nemours and Company, priority 1999, dated 2007).

How the values were obtained:
Type in all cases: cell-based
Sclerotinia sclerotiorum = experiment: In vitro 96 well microtiter plate assay, inhibition of hyphal growth; conditions: 24 hours at 22° C., 2 replicates
Experimental: An in vitro assay was also performed in a 96 well microtiter plate to determine the activity of Pps-AMP1 mature peptide against Sclerotinia sclerotiorum. Test inoculum was started by inoculating ½ strength potato dextrose broth (PDB) liquid with a sterile loop of hyphae from a Sclerotinia culture propagated on ⅛ strength potato dextrose agar (PDA) plate. Liquid inoculum was held at room temperature (22° C.), without shaking, in the dark for 4 days, to allow sufficient growth of hyphae. The resulting suspension was macerated using a polytron tissue grinder. The sample was then diluted to the point of invisibility to the naked eye (observation under microscopy at 40× indicated the presence of hyphal fragments). […] […] Sclerotinia hyphae only, or ½ strength PDB only, were included as negative controls.

[1] = test system: Colletotrichum graminaria; experiment: Bioactivity of Pps-AMP1 mature peptide against fungal pathogens (spore suspension in 1/2 strength PDB); conditions: concentration at which 90% of fungal growth is inhibited, 48 hour incubation at 28° C.
Experimental: (§1) The purified refolded and lyophilized Pps-AMP1 mature peptide was resuspended in dH2O to a final concentration of about 4 μg/μl. 12 μg of purified Pps-AMP1 mature peptide was added to 200 μl of ½ strength potato dextrose broth (PDB) containing a spore suspension of either Fusarium verticilloides, Colletotrichum graminaria, or Neurospora crassa containing 2500 spores/ml. […] A 0.5× dilution series for Pps-AMP1 mature peptide from 10 μM through to about 0.005 μM was prepared by removing 100 μl of the 10 μM stock and adding it to 100 μl of spore suspension (2500 spores/ml), mixing thoroughly to achieve a 5 μM Pps-AMP1 mature peptide concentration, transferring 100 μl of the 5 μM suspension to a fresh 100 μl spore suspension etc., until about 0.005 μM was reached. Two replicates per pathogen were performed. […] Inhibition of fungal growth was defined as little to no spore germination without detectable hyphae growth. The bioactivity of Pps-AMP1 mature peptide against these fungal pathogens is shown below. The IC90 concentration represents that concentration at which 90% of fungal growth is inhibited.

Fusarium verticilloides = experiment: as above; conditions: concentration at which 90% of fungal growth is inhibited, 48 hour incubation at 28° C.
Experimental: as §1

Neurospora crassa = experiment: as above; conditions: concentration at which 90% of fungal growth is inhibited, 48 hour incubation at 28° C.
Experimental: as §1

| Compound | inhibition of fungal growth (Sclerotinia sclerotiorum; 0.023 μM) | inhibition of fungal growth (Sclerotinia sclerotiorum; 17–0.07 μM) | IC90 [1] | IC90 (Fusarium verticilloides) | IC90 (Neurospora crassa) | inhibition of fungal growth (Sclerotinia sclerotiorum; 2.5 μM - 0.005 μM) | inhibition of fungal growth (Sclerotinia sclerotiorum; 5 μM) | inhibition of fungal growth (Sclerotinia sclerotiorum; 10 μM) |
| --- | --- | --- | --- | --- | --- | --- | --- | --- |
| COC(=O)Nc1nc2ccccc2[nH]1 [MBC standard, methyl 2-benzimidazolecarbamate, reference compound] | 0.023 μM - moderate inhibition of fungal growth. | 17–0.07 μM - total inhibition of fungal growth. | – | – | – | – | – | – |
| Pps-AMP1 mature peptide: mature peptide of Picramnia pentandra defensin clone pps.pk0010.g2, expressed in E. coli, refolded and purified (QRLCERASLTWSGNCGNTAHCDNQCRSWEHAQHGACHVRGGKHMCFCYFNC) | – | – | 2.5 µM | 0.6 µM | 0.05 µM | 2.5 μM - 0.005 μM no inhibition of fungal growth. | 5 μM - moderate inhibiton of fungal growth. | 10 μM - total inhibition of fungal growth. |
